The nature of this data set: GHS categories as the set defines them, by LD50: 1 up to 5, 2 up to 50, 3 up to 300, 4 up to 2000, 5 above 2000 mg/kg. To be noted: rat; in vivo; po.

The structures appear in SMILES notation. *1 amine or outer side, *2 acyl side, *3 side chain or, on linkers, in order; H or OH if unused. Where a SMILES comes first, the peptide text is derived from it. Bridges are numbered along the chain shown (N, C = ends). [ ]: non-standard residue; d: D form. The star is where a group is joined. X5 = O=C(NC(=O)[*:2])C(N[*:1])c1cc(Cl)c(O)c(Cl)c1; X3 = NCCCCN(C(=O)C(N[*:1])c1ccc(O)cc1)C(=O)[*:2]; X4 = NC1=NC(CC(N[*:1])C(=O)[*:2])CN1; Hpg = N[CH](C(=O)O)c1ccc(O)cc1; X2 = CCC(C)CCCC/C=C/C=C/C(=O)*; Cit = NC(=O)NCCC[CH](N)C(=O)O

Take `CCC(C)CCCC/C=C/C=C/C(=O)NC(CC(=O)O)C(=O)NC1C(=O)NC(c2ccc(O)cc2)C(=O)N(CCCCN)C(=O)NC(C(C)O)C(=O)NC(c2ccc(O)cc2)C(=O)NC(c2ccc(O)cc2)C(=O)NC(C(C)O)C(=O)NC(CCCNC(N)=O)C(=O)NC(CC2CNC(N)=N2)C(=O)NC(c2ccc(O)cc2)C(=O)NC(CO)C(=O)NC(c2cc(Cl)c(O)c(Cl)c2)C(=O)NC(=O)NC(CC2CNC(N)=N2)C(=O)NC(C)C(=O)NC(c2ccc(O)cc2)C(=O)OC1C` (configuration not stated) (X2-DT[X3]T[Hpg][Hpg]T[Cit][X4][Hpg]S[X5][X4]A[Hpg]; ester 2-C; configuration not given here): the GHS category amounted to 5.

As to `COCCCCC(=O)c1ccc(C(F)(F)F)cc1`, the GHS category was determined as 5.

In the case of `CC(=O)C=CC=C(C)CCC=C(C)C`, the GHS category was 5.

In the case of `COc1ccccc1N=NC(C(C)=O)C(=O)Nc1ccc2[nH]c(=O)[nH]c2c1` (configuration not stated), the GHS category was found to be 5.

For `CC(C)C1(C)N=C(c2ncccc2C(=O)O)NC1=O` (configuration not stated), the GHS category is given as 5.

Turning to `CCNC(=O)[C@@H]1CCCN1C(=O)[C@H](CCCNC(=N)N)NC(=O)[C@H](CC(C)C)NC(=O)[C@@H](CC(C)C)NC(=O)[C@H](Cc1ccc(O)cc1)NC(=O)[C@H](CO)NC(=O)[C@H](Cc1c[nH]c2ccccc12)NC(=O)[C@H](Cc1cnc[nH]1)NC(=O)[C@@H]1CCC(=O)N1`, the GHS category was 5.

Molecule `O=[N+]([O-])c1ccc2c(c1)COP(=S)(N1CCOCC1)O2` (configuration not stated) came in with a GHS category of 3.

In the case of `O=C(Nc1ccccc1C(=O)O)C(=Cc1ccccc1)C(=O)Nc1ccccc1C(=O)O`, the GHS category is reported as 5.

`COC(=O)CCCCCCCCC(=O)OC`: the GHS category amounted to 5.

`Cc1ccc(O)c(/N=N/c2ccccc2[N+](=O)[O-])c1` yielded a GHS category of 5.

In the case of `Cc1cc2[nH]c(=O)[nH]c2cc1N=NC1C(=O)NC(=O)NC1=O`, the GHS category is recorded as 5.

The molecule `O=C1CCc2cc(OCCCCc3nnnn3C3CCCCC3)ccc2N1` returned a GHS category of 5.

`Cn1nnnc1SCCCS(=O)c1ccccn1` (configuration not stated) displayed a GHS category of 4.

`COC(=O)c1nc(Cl)c(Cl)nc1N` showed a GHS category of 5.

In turn, `C/C=C\[C@@H]1[C@@H](C(=O)OCc2c(F)c(F)c(COC)c(F)c2F)C1(C)C` showed a GHS category of 5.

The molecule `CCOC(=O)C(C)(C)Oc1ccc2c(c1)C=C(n1ccnc1)CC2` registered a GHS category of 5.

`COC(=O)c1sc(N)c(C#N)c1C` registered a GHS category of 5.

With `CC(=O)OC1C=C(C)C2CC(=C(C)C)CC2C(C)C1` (configuration not stated), the GHS category is 5.

In the case of `CC(C)=CCSC[C@H](N)C(=O)O`, the GHS category is reported as 5.

In the case of `CC[C@H](C)C(=O)O[C@H]1C[C@@H](C)C=C2C=C[C@H](C)[C@H](CC[C@@H]3C[C@@H](O)CC(=O)O3)[C@H]21`, the GHS category worked out at 5.

In turn, `CCCCC1C(=O)N(c2ccccc2)N(c2ccc(S(C)(=O)=O)cc2)C1=O` (configuration not stated) had a GHS category of 4.

`CCC(=NOC/C=C/Cl)C1=C(O)CC(C2CCOCC2)CC1=O` (configuration not stated): the GHS category is 5.

In turn, `COc1cc(OC)nc(N=C(O)NS(=O)(=O)c2c(Cl)nc3ccccn23)n1` gave a GHS category of 5.

`Cc1ccc(Cl)cc1N=Nc1c(O)c(C(=O)Nc2cc(C)c(NC(=O)c3cc4ccccc4c(N=Nc4cc(Cl)ccc4C)c3O)cc2C)cc2ccccc12` had a GHS category of 5.

In the case of `CCCCCCCCC=O`, the GHS category amounted to 5.

Regarding `COC(=O)C1=C(C)NC(COC(N)=O)=C(C(=O)OC(C)C)C1c1cccc(Cl)c1Cl` (configuration not stated), the GHS category is listed as 5.

`NCCS(=O)(=O)O` yielded a GHS category of 5.

`CCCCCCCCCCCCCCCCOC(=O)Oc1c(Cl)cc(C(=O)OCC)cc1Cl` returned a GHS category of 5.

`CSc1nc2cc(Cl)c(Oc3cccc(Cl)c3Cl)cc2[nH]1`: the GHS category was determined as 5.

On to `Fc1c(F)c(F)c(Cl)c(F)c1F`, for which the GHS category is on record as 5.

For the molecule `CC(=C(CCS(C)=O)SSC(CCS(C)=O)=C(C)N(C=O)Cc1cnc(C)nc1N)N(C=O)Cc1cnc(C)nc1N` (configuration not stated), the GHS category was 4.

Molecule `NC(=O)Oc1ccc(Cl)cc1C(=O)Oc1ccc(Cl)cc1Cl` had a GHS category of 5.

Values taken from the CATMoS acute toxicity set (Mansouri et al. 2021).
